Marks after values point to notes of the source that are not given here.
Key:
[1] = system: BP63 (L. plantarum PN0512ΔpyrFΔfabZ1); experiment: Fatty acid supplements supporting growth of the fabZ1 mutant; assay type: cell-based; conditions: fatty acid supplied at 80 mg/L; overnight incubation, OD600
Description: With 100 or 200 mg/liter of oleic acid the growth of BP63 was equivalent to that of the fabZ1^+ control strain, BP15. […] Thus, we conclude that fabZ1 in L. plantarum has the same function as FabN in E. faecalis (Wang, H. and Cronan, J. E. 2004. Functional replacement of the FabA and FabB proteins of Escherichia coli fatty acid synthesis by Enterococcus faecalis FabZ and FabF homologs. J. Biol. Chem. 279, 34489-95). To further test the range of fatty acid supplements that support growth of the fabZ1 mutant, several other fatty acids were supplied at 80 mg/L to the semi-synthetic LAB medium as described above. BP63 and the parental control BP15 were inoculated from the working stocks. After overnight incubation, the OD600 was measured. The growth of BP15 was not inhibited by any of the fatty acids tested. The Table 9 below summarizes the results for the fabZ1 mutant strain, BP63.

[2] = system: L. plantarum strain PN0512; experiment: Growth yield (OD600) in isobutanol, stearic acid fed and unfed cultures; assay type: cell-based, Lactobacillus plantarum; conditions: for OD600 fed Stearic: stearic acid 50 mg per liter, 25 hours, 30° C.
Description: For growth yield experiments, 5 ml of medium with test fatty acids (10-500 mg per liter) and varying concentrations of isobutanol in 15 ml screw cap tubes was inoculated with 12.5 μl of the working stock giving an initial OD600 of 0.012. The caps were tightly sealed and incubated at 30° C. on a roller drum for 20 to 26 hours, at which time 1.0 ml was removed and OD600 was measured with a blank of medium amended with the fatty acid. All solvent concentrations are reported as % (w/v).
Growth of L. plantarum cultures in the media described in General Methods and containing varying concentrations of isobutanol was measured and compared with the cultures fed (supplemented with) stearic acid at a final concentration of 50 mg per liter of medium. Cultures were prepared as described in General Methods.

[3] = system: L. plantarum strain PN0512; experiment: FAME analysis of membrane lipids of stearic acid fed cultures; assay type: cell-based, Lactobacillus plantarum
Description: The membrane lipids were extracted by modified Bligh and Dyer protocol (Can. J. Biochem. Physiol. (1959) 37:911-17). The cell pellet prepared as described above was suspended in a mixture of 0.5 ml CHCl3 and 1 ml CH3OH, and transferred to a 13×100 mm tube with a screw top cap. The cap was screwed on about ¾ of the way (i.e., not tight), and the tube was incubated at 40° C. for 30 min. The tube was cooled and an additional 0.5 ml CHCl3 and 1 ml H2O were added the mixture. […] The two phases were equilibrated by vortexing. The two phases were allowed to separate; then the lower CHCl3 layer was removed and transferred to another 13×100 mm tube with a screw top cap. With the cap removed, the CHCl3 was evaporated under a stream of N2. Methyl esters of the fatty acids in the residue were then formed using one of the following procedures.
1 ml freshly made 1.0 M CH3ONa in CH3OH was added to the tubes containing lipid samples extracted by the Bligh and Dyer method as described above. The caps were placed on tubes, screwed on about ¾ of the way (i.e., not tight), then the tubes were heated at 60° C. for 30 minutes. The mixture was chilled in ice bath and 1 ml of 1.0 N HCl was added to the solution in the tubes. The pH of the resulting solution was checked with pH paper to make sure a pH of 7 or lower had been reached. 0.5 ml hexane was added into the test tube and mixed well by vortexing. The tubes were allowed to sit for a few minutes until two phases formed. The top hexane layer was removed and placed in a separate tube for storage until analysis, which was done by GC/FID and/or GC/MS. 2 μl of the hexane layer was injected into an Agilent GC (model 6890)/MS (model 5973). For routine samples a Supelco Equity-1 column (15 m×0.25 mm×0.25 μm film thickness; catalog #28045-U) was used with an FID detector (GC/FID). When an unknown peak needed to be identified, the same column was used with an Agilent MSD detector (GC/MS). When samples requiring difficult separations that were impossible to achieve on a 15 m column were analyzed (e.g., the separation of oleic from elaidic acid), a Supelco S-2380 column (100 m×0.25 mm×0.25 μm film thickness; catalog #24317) was used.
For preparation of samples for FAME analysis, the working stock was used to inoculate 40 ml of medium containing free fatty acids and the cultures were grown overnight. The cell pellet was harvested by centrifugation and was washed twice with phosphate buffered saline (PBS, Bio-Rad Laboratories, Hercules, Calif.) and 5 g/l BSA, then two more times with PBS. Cell pellets were stored at −80° C. until analyzed by FAME using a transesterification protocol, which quantifies fatty acids that have been incorporated in membrane lipids, but not free fatty acids associated with the cell membrane. The FAME analysis is described by Christie (1993) (In Advances in Lipid Methodology—Two, pp. 69-111, Ed. W. W. Christie, Oily Press, Dundee).
Cultures of Lactobacillus plantarum strain PN0512 were grown in media containing stearic acid along with control cultures (with no added fatty acids to the media), as described in General Methods. The membrane composition was analyzed by FAME analysis as described in General Methods as well. The results of FAME analyses shown in Table 6 indicate that stearic acid (C18:0), when added to the growth medium of a culture of strain PN0512, was incorporated into the cell membrane thereby resulting in a substantial increase of the amount of stearic fatty acid in the cell membrane.

## CCCCCCCC/C=C/CCCCCCCC(=O)O [Elaidic]
[1]
  Supports growth of BP63: YES

## CCCCCCCC/C=C\CCCCCCCCCCCC(=O)O [Erucic]
[1]
  Supports growth of BP63: Very slight growth

## CCCCC/C=C\C/C=C\CCCCCCCC(=O)O [Linoleic]
[1]
  Supports growth of BP63: YES

## CCCCCCCCCCCCCC(=O)O [Myristic, Tetradecanoic Acid]
[1]
  Supports growth of BP63: no

## CCCCCCCCCCCCCCCC(=O)O [Palmitic, Hexadecanoic Acid]
[1]
  Supports growth of BP63: no

## CCCCCC/C=C\CCCCCCCC(=O)O [Palmitoleic]
[1]
  Supports growth of BP63: YES

## CCCCCCCCCCCCCCCCCC(=O)O [Stearic Acid, Octadecanoic Acid]
[2]; 0 % w/v isobutanol
  OD600 Ratio OD600fed/OD600unfed control: 1.08
  OD600 fed Stearic: 1.452
[2]; 2.3 % w/v isobutanol
  OD600 Ratio OD600fed/OD600unfed control: 1.18
  OD600 fed Stearic: 0.860
[2]; 2.5 % w/v isobutanol
  OD600 Ratio OD600fed/OD600unfed control: 1.23
  OD600 fed Stearic: 0.422
[2]; 2.7 % w/v isobutanol
  OD600 Ratio OD600fed/OD600unfed control: 1.57^b
  OD600 fed Stearic: 0.206
[2]; 2.9 % w/v isobutanol
  OD600 Ratio OD600fed/OD600unfed control: 1.92
  OD600 fed Stearic: 0.098
[2]; all tested concentrations of isobutanol
  growth yield of stearic acid fed cultures compared with control cultures: greater
[1]
  Supports growth of BP63: no
[3]; ratio of molar %
  Membrane Fatty Acid Effect (stearic acid fed)/(stearic acid not fed), C16:0: 0.52
  Membrane Fatty Acid Effect (stearic acid fed)/(stearic acid not fed), C16:1: 1.30
  Membrane Fatty Acid Effect (stearic acid fed)/(stearic acid not fed), C18:0: 33.2
  Membrane Fatty Acid Effect (stearic acid fed)/(stearic acid not fed), C18:1, cis: 0.78
  Membrane Fatty Acid Effect (stearic acid fed)/(stearic acid not fed), cyc-C19:0: 1.23
[3]; stearic acid (C18:0) fed
  Membrane Fatty Acid Content, C16:0: 14.1 molar %
  Membrane Fatty Acid Content, C16:1: 10.0 molar %
  Membrane Fatty Acid Content, C18:0: 16.6 molar %
  Membrane Fatty Acid Content, C18:1, cis: 34.4 molar %
  Membrane Fatty Acid Content, cyc-C19:0: 25.0 molar %
[3]; with stearic acid feeding
  increase of molar % of stearic acid in the cell membrane: more than 30 fold
  increase of molar ratio saturated/unsaturated fatty acids: 16%
[3]; with stearic acid feeding (0.53 without)
  molar ratio of saturated fatty acids (C16:0 and C18:0) to unsaturated fatty acids (C16:1 and C18:1, cis): 0.69

## CCCCCCCC/C=C\CCCCCCCCCC(=O)O [cis 11-eicosenoic]
[1]
  Supports growth of BP63: YES

## CCCCCC/C=C\CCCCCCCCCCCC(=O)O [cis 13 eicosenoic]
[1]
  Supports growth of BP63: no

## CCCCC/C=C\C/C=C\CCCCCCCCCC(=O)O [cis-11,14-Eicosadienoic]
[1]
  Supports growth of BP63: Partial growth

## CCCCCC/C=C\CCCCCCCCCC(=O)O [cis-Vaccenic]
[1]
  Supports growth of BP63: YES

## CCCCCCCC[C@@H]1C[C@@H]1CCCCCCCC(=O)O [dihydrosterculic, Dihydrosterculic acid]
[1]
  Supports growth of BP63: YES

— patent US20110195505A1, “BACTERIAL STRAINS FOR BUTANOL PRODUCTION” (priority 2009, published 2011)
